This is an account of results in patent publication US9290503B2, “Tricyclic compound derivatives useful in the treatment of neoplastic diseases, inflammatory disorders and immunomodulatory disorders” (CHEMBRIDGE CORPORATION, priority 2006, dated 2016).

Holding throughout (assay type): cell-based
The test system of assay [1] is HEK293 (human normal embryonic kidney). In words: Cell proliferation assay, MTT, HEK293. Conditions: HEK293, 72 h, standard 3-day proliferation assay, read-out: HEK IC50. An excerpt: (§1) IGF1R and other tyrosine kinase inhibitors can inhibit the proliferation of certain cancer cell lines indicating their possible therapeutic utility for treating the corresponding cancer types. Cancer cell lines of interest and control normal lines, including CHO, HEK293, BA/F3, COLO205, PC3, DU145, MCF7, Panc1, ACHN, Hep G2, H460, K562, TT, U87-MG, CAOV-3, SK-MEL5, Karpas 299 and human multiple myeloma cell lines H929, MM1s, MM1r, UTMC2, CPM2, KMS11, My5, KMS12PE, My7, JJN3, KMS18, U266, SKMM2, RPMI-8226 are plated in white, clear-bottomed 384-well cell culture plates at 2500-5000 cells per well and supplied with dilutions of tested compounds After a desired period of time (typically 3 days), the number of viable cells is quantitated by using Cell Titer-Glo Luminescent Cell Viability Assay (Promega), a cell proliferation assay system based on detection of total amount of ATP present as a measure of cell metabolic activity. The plated cells are mixed with the Cell Titer-Glo developing reagent and counted in a luminescence multiwell plate reader according to the standard manufacturer's protocol to generate IC50 curves for cell proliferation inhibition. […] Alternatively, viable cells are quantitated by using the conventional colorimetric MTT assay. […] The formazan is then solubilized, and the concentration determined by optical density at 570 nm. […]

The test system of assay [2] is CHO (chinese hamster ovary). The assay is described as follows: Cell proliferation assay, MTT, CHO. Conditions: Cricetulus griseus, 72 h, standard 3-day proliferation assay.
Description: as §1

Assay [3] concerns H929. The assay is described as follows: Cell proliferation assay, MTT, H929. Conditions: Homo sapiens, NCI-H929, 72 h, standard 3-day proliferation assay.
Description: as §1

Assay [4] has as its system MM1s. The assay is described as follows: Cell proliferation assay, MTT, MM1s. Conditions: Homo sapiens, MM1.S, 72 h, standard 3-day proliferation assay.
Description: as §1

Assay [5] relates to MM1r. In words: Cell proliferation assay, MTT, MM1r. Conditions: Homo sapiens, MM.1R, 72 h, standard 3-day proliferation assay.
Description: as §1

Assay [6] relates to UTMC2. The assay is described as follows: Cell proliferation assay, MTT, UTMC2. Conditions: Homo sapiens, UTMC2, 72 h, standard 3-day proliferation assay.
Description: as §1

For assay [7], the system named is CPM2. In words: Cell proliferation assay, MTT, CPM2. Conditions: Homo sapiens, 72 h, standard 3-day proliferation assay.
Description: as §1

The test system of assay [8] is KMS11. The assay is described as follows: Cell proliferation assay, MTT, KMS11. Conditions: Homo sapiens, KMS-11, 72 h, standard 3-day proliferation assay.
Description: as §1

For assay [9], the system named is My5. The assay is described as follows: Cell proliferation assay, MTT, My5. Conditions: Homo sapiens, 72 h, standard 3-day proliferation assay.
Description: as §1

In assay [10] the test system is KMS12PE. The assay is described as follows: Cell proliferation assay, MTT, KMS12PE. Conditions: Homo sapiens, KMS-12-PE, 72 h, standard 3-day proliferation assay.
Description: as §1

The subject of assay [11] is My7. The assay is described as follows: Cell proliferation assay, MTT, My7. Conditions: Homo sapiens, 72 h, standard 3-day proliferation assay.
Description: as §1

Assay [12] has as its system JJN3. In words: Cell proliferation assay, MTT, JJN3. Conditions: Homo sapiens, JJN-3, 72 h, standard 3-day proliferation assay.
Description: as §1

In assay [13] the test system is KMS18. In words: Cell proliferation assay, MTT, KMS18. Conditions: Homo sapiens, KMS18, 72 h, standard 3-day proliferation assay.
Description: as §1

Assay [14] deals with U266. The assay is described as follows: Cell proliferation assay, MTT, U266. Conditions: Homo sapiens, U-266, 72 h, standard 3-day proliferation assay.
Description: as §1

Assay [15] deals with SKMM2. In words: Cell proliferation assay, MTT, SKMM2. Conditions: Homo sapiens, SK-MM-2, 72 h, standard 3-day proliferation assay.
Description: as §1

Assay [16] relates to RPMI-8226. The assay is described as follows: Cell proliferation assay, MTT, RPMI-8226. Conditions: Homo sapiens, RPMI-8226, 72 h, standard 3-day proliferation assay.
Description: as §1

Assay [17] has as its target T1, IGF1 receptor (Homo sapiens, UniProt P08069).
T1 construct: MCF7 human breast cancer cells expressing IGF1 receptor; endogenous in cells; host or cells: MCF7 human breast cancer cells
The assay is described as follows: ELISA-based assay of IGF1 receptor autophosphorylation inhibition in cells. Conditions: MCF7 cells, read-out: MCF7 IGF1R Phosphorylation IC50. How it is done:
In another embodiment, compounds that interact with the IGF1R kinase domain are tested in a cell-based assay system. In accordance with this embodiment, cells expressing a full-length IGF1 receptor or a fragment thereof containing the IGF1R kinase domain, are contacted with a candidate or a control compound and the ability of the compound to block tyrosine kinase activity of IGF1R within a cell is determined. This assay may be used to screen a single compound or a large library of candidate compounds. […] The ability of the candidate compound to inhibit IGF1R kinase activity can be determined by methods known to those skilled in the art. For example, the inhibition can be determined by ELISA-type assay or Western blot analysis with cell lysates or immunoprecipitated IGF1R receptor using various anti-IGF1R and anti-phosphotyrosine antibodies.
In general, cells expressing IGF1R are treated with modulators (i.e., inhibitors or activators) of IGF1R kinase activity and cell lysates are produced from these treated cells. IGF1Rs are isolated from the lysate by immunoprecipitation and analyzed for phosphotyrosine content. Alternatively, or in addition, cellular protein substrates phosphorylated by IGFR may be immunoprecipitated from the lysates and their degree of tyrosine phosphorylation determined. […]

T1 sequence (P08069 31-1367): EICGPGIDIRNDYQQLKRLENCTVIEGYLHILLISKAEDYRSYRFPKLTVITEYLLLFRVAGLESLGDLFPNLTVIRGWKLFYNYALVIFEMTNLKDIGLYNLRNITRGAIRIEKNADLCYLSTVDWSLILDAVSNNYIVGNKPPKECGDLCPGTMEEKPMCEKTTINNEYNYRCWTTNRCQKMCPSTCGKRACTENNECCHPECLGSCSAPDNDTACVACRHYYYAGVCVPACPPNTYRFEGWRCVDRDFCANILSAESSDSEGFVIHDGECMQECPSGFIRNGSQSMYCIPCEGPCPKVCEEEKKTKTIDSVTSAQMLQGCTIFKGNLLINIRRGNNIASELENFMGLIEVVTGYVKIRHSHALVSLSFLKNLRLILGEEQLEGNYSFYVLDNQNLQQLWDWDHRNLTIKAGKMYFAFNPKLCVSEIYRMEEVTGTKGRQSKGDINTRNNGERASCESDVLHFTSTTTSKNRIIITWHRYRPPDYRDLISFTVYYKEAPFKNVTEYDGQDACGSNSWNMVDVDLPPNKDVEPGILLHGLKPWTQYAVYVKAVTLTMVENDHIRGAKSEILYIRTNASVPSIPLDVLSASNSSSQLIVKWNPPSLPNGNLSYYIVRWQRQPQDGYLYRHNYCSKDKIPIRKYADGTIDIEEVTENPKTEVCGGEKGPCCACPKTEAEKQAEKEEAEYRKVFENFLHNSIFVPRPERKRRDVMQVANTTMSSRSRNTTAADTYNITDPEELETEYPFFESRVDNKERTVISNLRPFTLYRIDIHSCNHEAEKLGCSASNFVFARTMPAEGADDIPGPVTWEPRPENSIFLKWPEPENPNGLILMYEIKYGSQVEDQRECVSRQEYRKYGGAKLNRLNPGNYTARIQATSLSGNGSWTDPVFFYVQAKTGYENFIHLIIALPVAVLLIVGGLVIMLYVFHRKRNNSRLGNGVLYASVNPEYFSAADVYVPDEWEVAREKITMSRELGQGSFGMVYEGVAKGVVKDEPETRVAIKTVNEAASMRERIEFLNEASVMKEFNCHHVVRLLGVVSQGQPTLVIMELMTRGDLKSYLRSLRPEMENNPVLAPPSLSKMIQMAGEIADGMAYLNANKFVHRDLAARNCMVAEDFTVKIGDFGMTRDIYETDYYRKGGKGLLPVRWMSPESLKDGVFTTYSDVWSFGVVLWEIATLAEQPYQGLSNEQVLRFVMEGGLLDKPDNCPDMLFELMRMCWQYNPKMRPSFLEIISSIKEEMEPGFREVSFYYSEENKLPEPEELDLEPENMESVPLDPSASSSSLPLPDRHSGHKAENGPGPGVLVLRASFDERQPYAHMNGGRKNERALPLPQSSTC

For `CC(=O)CCN1CCC(N2Cc3cc4nc(-c5c(NCC(=O)COc6ccc(C)cc6C)cc[nH]c5=O)[nH]c4cc3C2=O)CC1`, the concentration for half-maximal inhibition (IC50) in [1] is ≥ 20 µM; in assay [2], ≥ 20 µM; in assay [3] it was 1 to 5 µM; in assay [4] it was 1 to 5 µM; in [5], 1 to 5 µM; in assay [6], < 0.5 µM. Further, the half-inhibitory concentration (IC50) was 1 to 5 µM in assay [7]; 5 to 20 µM in assay [8]; 5 to 20 µM in [9]; 5 to 20 µM in assay [10]; 5 to 20 µM in [11]; 5 to 20 µM in [12]. For the same molecule, the IC50 in assay [13] was in the range of 5 to 20 µM; in assay [14] it was 1 to 5 µM; in assay [15], 5 to 20 µM; in assay [16], 5 to 20 µM.

As to `CN1CCC(N2C(=O)c3cc4nc(-c5c(NCC(O)c6ccncc6)cc[nH]c5=O)[nH]c4cc3C2=O)CC1` (stereo not drawn) [compound 7], in assay [17], the IC50 was > 15 µM.

For the molecule `Cc1ccc(OCC(=O)CNc2cc[nH]c(=O)c2C2Nc3cc4c(cc3N2)C(=O)N(C2CCN(CCS(C)(=O)=O)CC2)C4)c(C)c1` (stereo not drawn), the half-inhibitory concentration (IC50) was ≥ 20 µM in assay [1]; ≥ 20 µM in assay [2]; 0.5 to 1 µM in assay [3]; 0.5 to 1 µM in [4]; 1 to 5 µM in assay [5]; < 0.5 µM in [6]. In addition, the half-maximal inhibitory concentration (IC50) in assay [7] lay in the range of 1 to 5 µM; in [8], 1 to 5 µM; in [9], 5 to 20 µM; in [10], 1 to 5 µM; in assay [11] it was 1 to 5 µM; in [12], 1 to 5 µM. Besides, the IC50 in [13] is 5 to 20 µM; in assay [14], 1 to 5 µM; in assay [15], 1 to 5 µM; in assay [16], 5 to 20 µM.
